Test system: primary normal human melanocytes
Test: melanogenesis assay (14C-tyrosine incorporation) after 3 days of incubation
Format: cell-based
Conditions: for melanogenesis rate (measured as 14C-tyrosine incorporation) based on the untreated control (=100%): 3 days incubation, primary normal human melanocytes, mean (X transverse), n=4
Description: A melanogenesis assay was carried out after 3 days of incubation of primary normal human melanocytes with test substance compared to control. The figures listed in the table give the melanogenesis rates (measured as ^14C-tyrosine incorporation) based on the untreated control (=100%). It results from this that the melanogenesis, i.e., the process of melanine synthesis, rises to 156% or 150% when the melanocytes are cultivated in the presence of the compound (I) (2E,3S,4R)-2,3,4-trimethyl-3-[(3E,7E,11E)-3,8,12,16-tetramethylheptadeca-3,7,11,15-tetraen-1-yl]cyclohexanone (n=4).
Furthermore, a melanogenesis assay was carried out after 3 days of incubation of primary normal human melanocytes with test substance compared to control. The figures listed in the table give the melanogenesis rates (measured as ^14C-tyrosine incorporation) based on the untreated control (=100%). It results from this that the melanogenesis, i.e., the process of melanine synthesis, rises to 135% or 113% when the melanocytes are cultivated in the presence of the preferred compound (III) (4E,8E,12E,16E)-3,7,11,15-tetrahydroxy-18-(hydroxymethyl)-2,4,6,10,14,16,20-heptamethyldocosa-4,8,12,16-teraenoic acid (n=4).

Compound	melanogenesis rate (measured as 14C-tyrosine incorporation) based on the untreated control (=100%) (0.1 μg/ml test substance) [%]	melanogenesis rate (measured as 14C-tyrosine incorporation) based on the untreated control (=100%) (1 μg/ml test substance) [%]	increase of the synthesis of melanin (result in words) (tests to increase the synthesis of melanin)
CC(C)=CCC/C(C)=C/CC/C(C)=C/CC/C=C(\C)CC[C@@]1(C)[C@H](C)CCC(=O)[C@@H]1C [compound (I), (2R,3S,4R)-2,3,4-trimethyl-3-[(3E,7E,11E)-3,8,12,16-tetramethylheptadeca-3,7,11,15-tetraen-1-yl]cylcohexanone]	150	156	
CCC(C)CC(/C=C(\C)C(O)C(C)/C=C/C(O)C(C)/C=C/C(O)C(C)/C=C(\C)C(O)C(C)C(=O)O)CO (centres unmarked) [compound (III), (4E,8E,12E, 16E)-3,7,11,15-tetrahydroxy-18-(hydroxymethyl)-2,4,6,10,14,16,20-heptamethyldocosa-4,8,12,16-tetraenoic acid]	153	172	particularly advantageous

Source: US20070243147A1, “Skin and/or Hair Composition Containing Compounds for Increasing The Tanning of Skin” (BEIERSDORF AG, priority 2004, published 2007)
